Experimental data reported in US4335041A, “High sensitivity assays for angiotensin converting enzyme” (Ventrex Laboratories, Inc., priority 1980, dated 1982).
Peptide text beside a SMILES is read from it. * marks the point of attachment. Bz = O=C(c1ccccc1)*

Key:
[1] = system: enzyme isolated from hog lung; settings: cited from earlier work
[2] = biological target: T1, Guinea pig urinary ACE (Cavia porcellus, UniProt H0UWL7); test: Sulfate and chloride effects on substrate hydrolysis (Example 3); type: biochemical
T1 sequence (H0UWL7 33-1302): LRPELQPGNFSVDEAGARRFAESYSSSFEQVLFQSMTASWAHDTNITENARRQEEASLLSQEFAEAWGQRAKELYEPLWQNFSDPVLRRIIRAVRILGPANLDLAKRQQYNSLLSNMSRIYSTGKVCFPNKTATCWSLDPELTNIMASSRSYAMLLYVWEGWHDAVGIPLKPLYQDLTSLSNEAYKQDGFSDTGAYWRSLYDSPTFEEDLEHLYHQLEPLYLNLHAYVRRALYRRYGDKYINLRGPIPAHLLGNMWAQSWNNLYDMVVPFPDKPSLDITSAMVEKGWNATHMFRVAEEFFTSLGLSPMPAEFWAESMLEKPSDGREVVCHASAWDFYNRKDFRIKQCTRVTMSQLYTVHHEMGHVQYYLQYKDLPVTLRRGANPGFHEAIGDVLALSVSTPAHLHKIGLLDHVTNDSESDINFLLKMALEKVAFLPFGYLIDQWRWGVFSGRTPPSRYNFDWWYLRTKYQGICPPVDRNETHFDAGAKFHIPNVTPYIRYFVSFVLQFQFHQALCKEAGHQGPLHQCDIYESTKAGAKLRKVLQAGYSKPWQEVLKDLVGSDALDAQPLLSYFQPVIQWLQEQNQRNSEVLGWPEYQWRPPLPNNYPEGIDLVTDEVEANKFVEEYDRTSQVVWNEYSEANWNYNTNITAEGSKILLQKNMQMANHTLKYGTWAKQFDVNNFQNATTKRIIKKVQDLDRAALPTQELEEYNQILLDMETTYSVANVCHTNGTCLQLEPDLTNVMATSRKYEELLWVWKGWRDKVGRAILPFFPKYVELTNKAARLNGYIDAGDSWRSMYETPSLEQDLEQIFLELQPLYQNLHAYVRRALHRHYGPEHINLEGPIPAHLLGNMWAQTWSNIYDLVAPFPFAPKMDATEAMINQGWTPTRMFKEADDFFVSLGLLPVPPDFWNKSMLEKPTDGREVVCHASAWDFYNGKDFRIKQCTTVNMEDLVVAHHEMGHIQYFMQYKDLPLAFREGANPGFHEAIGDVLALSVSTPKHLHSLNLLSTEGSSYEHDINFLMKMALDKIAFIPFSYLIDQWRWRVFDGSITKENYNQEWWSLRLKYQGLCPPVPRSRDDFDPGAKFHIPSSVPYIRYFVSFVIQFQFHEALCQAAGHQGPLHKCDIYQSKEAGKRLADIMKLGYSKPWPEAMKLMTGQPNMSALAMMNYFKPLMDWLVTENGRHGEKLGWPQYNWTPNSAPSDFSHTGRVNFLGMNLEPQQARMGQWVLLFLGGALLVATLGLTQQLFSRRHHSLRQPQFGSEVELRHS
Method: ^3 H-HipHisLeu prepared as described in Example 2 and ^3 H-benzoylPheAlaPro, prepared as described in Example 5, were used as substrates for Guinea pig urinary ACE, prepared as described in Example 1. […] All incubations were carried out at 37° C. for 10 minutes. Enzyme was diluted in the reaction buffer to provide not more than 15% hydrolysis during the 10 minute incubation. Enzyme, 50 μl, was mixed with 50 μl ^3 H-HipHisLeu, 0.2 mM, having 150,000 total counts pr minute (cpm), or with ^3 H-benzoylPheAlaPro having 10,000 cpm to 200,000 cpm. Reactions were carried out in the presence of 0.1 M NaCl or in the absence of NaCl, with varying amounts of Na2 SO4 added.

[3] = biological target: T2, Guinea pig serum ACE (Cavia porcellus, UniProt H0UWL7); test: Kinetics of sulfate-stimulated HipHisLeu hydrolysis (Example 4); type: biochemical
T2 sequence (H0UWL7 33-1234): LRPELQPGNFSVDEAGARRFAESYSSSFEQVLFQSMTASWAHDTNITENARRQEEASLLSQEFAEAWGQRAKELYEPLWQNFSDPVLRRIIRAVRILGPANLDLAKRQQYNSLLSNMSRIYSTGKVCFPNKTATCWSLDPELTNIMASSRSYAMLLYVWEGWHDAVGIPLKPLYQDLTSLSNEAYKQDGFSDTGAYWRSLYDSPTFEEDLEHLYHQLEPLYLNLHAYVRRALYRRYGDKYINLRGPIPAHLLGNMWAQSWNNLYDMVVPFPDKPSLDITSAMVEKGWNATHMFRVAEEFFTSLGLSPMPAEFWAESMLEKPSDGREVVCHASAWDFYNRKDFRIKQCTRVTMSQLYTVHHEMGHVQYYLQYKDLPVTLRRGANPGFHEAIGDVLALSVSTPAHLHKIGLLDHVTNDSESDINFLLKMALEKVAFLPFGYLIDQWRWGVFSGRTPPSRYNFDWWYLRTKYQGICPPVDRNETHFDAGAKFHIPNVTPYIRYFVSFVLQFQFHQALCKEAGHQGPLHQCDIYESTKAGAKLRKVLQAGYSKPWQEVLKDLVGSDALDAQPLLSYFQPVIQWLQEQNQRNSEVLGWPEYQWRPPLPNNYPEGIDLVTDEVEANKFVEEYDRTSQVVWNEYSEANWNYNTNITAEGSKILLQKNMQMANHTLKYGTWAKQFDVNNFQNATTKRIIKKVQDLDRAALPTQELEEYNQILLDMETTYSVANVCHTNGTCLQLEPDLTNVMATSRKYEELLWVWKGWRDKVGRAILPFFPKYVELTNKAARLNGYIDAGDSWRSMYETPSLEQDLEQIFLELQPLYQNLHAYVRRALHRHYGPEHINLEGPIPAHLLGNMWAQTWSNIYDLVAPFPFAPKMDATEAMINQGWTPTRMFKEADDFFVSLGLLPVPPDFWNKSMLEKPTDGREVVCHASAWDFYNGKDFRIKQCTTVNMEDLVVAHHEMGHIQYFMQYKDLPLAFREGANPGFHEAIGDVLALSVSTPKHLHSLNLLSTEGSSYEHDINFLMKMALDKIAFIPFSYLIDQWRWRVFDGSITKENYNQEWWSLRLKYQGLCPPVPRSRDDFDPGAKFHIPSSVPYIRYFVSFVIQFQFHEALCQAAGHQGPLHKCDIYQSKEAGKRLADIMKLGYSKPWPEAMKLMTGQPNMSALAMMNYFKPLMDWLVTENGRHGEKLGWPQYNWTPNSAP
Method: In each assay, 50 μl of Guinea pig serum diluted 1-20 (v/v) in the reaction buffer was mixed with 50 μl of buffer containing sufficient ^3 H-HipHisLeu to provide approximately 100,000 cpm total, together with sufficient unlabeled HipHisLeu to produce the desired substrate concentrations, as indicated in Table 2. […] The reaction mixture was then extracted with 1 ml ethyl acetate. 500 μl of the ethyl acetate fraction was sampled and counted in a scintillation counter.

[4] = system: ACE from rabbit lung; settings: sodium chloride removed; cited from earlier work
[5] = Solvent extraction from acidified reaction mixture; type: physicochemical
Description: While a variety of organic solvents may be suitable for the extraction step, it is preferred to employ toluene.

[6] = system: ACE; test: Response of 3H-benzoylPheAlaPro hydrolysis to added NaCl; type: biochemical; settings: 0.05 M added sodium chloride, 0.05 M Hepes pH 8.0
Method: An even more sensitive assay for ACE activity has been developed using the novel compound ^3 H-benzoylPheAlaPro as substrate. This new substrate can be used to assay ACE in human urine in incubations as short as 15 minutes. The response of this substrate to ions is strikingly different from the response of HipHisLeu. […] This difficulty has been solved by the proper choice of extracting solvent. While a variety of organic solvents may be suitable for the extraction step, it is preferred to employ toluene. Approximately 88% of ^3 H-benzoylPhe enters the toluene phase while only 6% of the unhydrolyzed substrate enters the toluene phase, when toluene and the acidified reaction mixture are in approximately equal volumes at room temperature.

[7] = sulfate 0.6 M, 0.1 M chloride, pH 8

In the case of `O=C(O)CNC(=O)CNC(=O)CNC(=O)c1ccccc1` [HipGlyGly] (Bz-Gly-Gly-Gly-OH), the “hydrolysis in the absence of NaCl” value ([1]; no NaCl, Na2SO4 0.001 M to 0.6 M) is listed as “no hydrolysis”, the “decrease of Km by sulfate” value [1, 7] is listed as “about 15%” and the “increase of Vmax by sulfate” value [1, 7] is listed as “about 5 fold”.
With `CC(C)C[C@H](NC(=O)[C@H](Cc1c[nH]cn1)NC(=O)CNC(=O)c1ccccc1)C(=O)O` [HipHisLeu] (Bz-Gly-His-Leu-OH) the “Reaction Velocity - Percent of Substrate Hydrolyzed in 10 minutes” value (“Reaction Velocity - Percent” for short) ([2]; 0.05M Hepes pH 8.0, 0.0M NaCl, Na2SO4 0) was 0%, the “Reaction Velocity - Percent” value ([2]; 0.05M Hepes pH 8.0, 0.0M NaCl, Na2SO4 0.1) was 0% and the “Reaction Velocity - Percent” value ([2]; 0.05M Hepes pH 8.0, 0.0M NaCl, Na2SO4 0.2) was 0%. The “Reaction Velocity - Percent” value ([2]; 0.05M Hepes pH 8.0, 0.0M NaCl, Na2SO4 0.3) was 0%, the “Reaction Velocity - Percent” value ([2]; 0.05M Hepes pH 8.0, 0.0M NaCl, Na2SO4 0.4) was 0.1% and the “Reaction Velocity - Percent” value ([2]; 0.05M Hepes pH 8.0, 0.0M NaCl, Na2SO4 0.5) was 0.1%. For the same compound, the “Reaction Velocity - Percent” value ([2]; 0.05M Hepes pH 8.0, 0.0M NaCl, Na2SO4 0.6) was 0.25%, the “Reaction Velocity - Percent” value ([2]; 0.05M Hepes pH 8.0, 0.0M NaCl, Na2SO4 0.7) was 0.25% and the “Reaction Velocity - Percent” value ([2]; 0.05M Hepes pH 8.0, 0.0M NaCl, Na2SO4 0.75) was 0.25%. For the same compound, the “Reaction Velocity - Percent” value ([2]; 0.05M Hepes pH 8.0, 0.0M NaCl, Na2SO4 0.8) was 0.25%, the “Reaction Velocity - Percent” value ([2]; 0.05M Hepes pH 8.0, 0.0M NaCl, Na2SO4 0.9) was 0.7% and the “Reaction Velocity - Percent” value ([2]; 0.05M Hepes pH 8.0, 0.0M NaCl, Na2SO4 1.2) was 3.9%. For the same compound, the “Reaction Velocity - Percent” value ([2]; 0.05M Hepes pH 8.0, 0.1M NaCl, Na2SO4 0) was 0.3%, the “Reaction Velocity - Percent” value ([2]; 0.05M Hepes pH 8.0, 0.1M NaCl, Na2SO4 0.4) was 4.1% and the “Reaction Velocity - Percent” value ([2]; 0.05M Hepes pH 8.0, 0.1M NaCl, Na2SO4 0.6) was 8.3%. For the same compound, the “reduction of Km by sulfate” value ([3]; 0.75 M Na2SO4 in reaction mixture containing 0.1 M NaCl) was “about 15 fold”, the “decrease in Km by sulfate” value ([3]; sulfate ion 0.75-1.1 M) was 14 fold and the “inhibition on removal of sodium chloride from the reaction medium” value [4] was 92%.
For `C[C@H](NC(=O)[C@H](Cc1ccccc1)NC(=O)c1ccccc1)C(=O)N1CCC[C@H]1C(=O)O` [benzoylPheAlaPro, benzoyl-Phe-Ala-Pro] (Bz-Phe-Ala-Pro-OH), the “Reaction Velocity - Percent” value ([2]; 0.05 Hepes pH 8.0, 0.1 M NaCl, Na2SO4 0) was 4.4%, the “Reaction Velocity - Percent” value ([2]; 0.05 Hepes pH 8.0, 0.1 M NaCl, Na2SO4 0.1) was 5.0% and the “Reaction Velocity - Percent” value ([2]; 0.05 Hepes pH 8.0, 0.1 M NaCl, Na2SO4 0.5) was 5.6%. The “extraction into ethyl acetate” value ([5]; reaction terminated with dilute hydrochloric acid) was “extracted almost quantitatively”, the “fraction entering the toluene phase” value ([5]; toluene and acidified reaction mixture in approximately equal volumes, room temperature) was 6% and the “increase of apparent reaction velocity by added NaCl” value [6] was “approximately 3 fold”.
